Test results reported in patent US11746116B2, “Antibiotic resistance breakers” (KING'S COLLEGE LONDON, priority 2017, dated 2023).
Values joined by “and” are separate entries in the source; they are usually repeats but may differ in a detail not shown here. Equal values may be shown once.

How the values were obtained:
[1] = target: Safetyscreen44 off target panel (Homo sapiens, UniProt P34972)
[2] = target: Safetyscreen44 off target panel (Homo sapiens, UniProt P23219)
[3] = target: Safetyscreen44 off target panel (Homo sapiens, UniProt P04150)
Safetyscreen44 off target panel (Homo sapiens, UniProt P04150), sequence (P04150 whole entry): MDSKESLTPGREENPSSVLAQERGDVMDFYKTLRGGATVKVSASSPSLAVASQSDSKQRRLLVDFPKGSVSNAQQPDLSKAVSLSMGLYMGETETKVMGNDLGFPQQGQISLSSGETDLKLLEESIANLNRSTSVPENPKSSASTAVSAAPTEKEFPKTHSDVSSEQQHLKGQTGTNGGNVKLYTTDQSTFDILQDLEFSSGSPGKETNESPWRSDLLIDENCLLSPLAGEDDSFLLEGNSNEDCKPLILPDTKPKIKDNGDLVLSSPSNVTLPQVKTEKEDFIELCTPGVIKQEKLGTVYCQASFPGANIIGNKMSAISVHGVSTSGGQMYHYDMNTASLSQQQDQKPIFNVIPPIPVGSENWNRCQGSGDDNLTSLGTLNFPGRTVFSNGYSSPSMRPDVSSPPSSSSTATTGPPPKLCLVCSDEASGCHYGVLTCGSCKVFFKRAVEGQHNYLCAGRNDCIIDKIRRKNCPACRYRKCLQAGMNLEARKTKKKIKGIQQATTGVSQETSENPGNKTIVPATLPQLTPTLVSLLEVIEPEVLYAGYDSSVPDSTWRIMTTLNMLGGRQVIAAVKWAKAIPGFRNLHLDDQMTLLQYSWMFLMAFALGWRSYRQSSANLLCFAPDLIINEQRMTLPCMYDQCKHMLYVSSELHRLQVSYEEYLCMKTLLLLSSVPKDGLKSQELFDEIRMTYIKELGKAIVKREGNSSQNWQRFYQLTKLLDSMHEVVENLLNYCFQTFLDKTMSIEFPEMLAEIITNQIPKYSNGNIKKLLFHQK

[4] = target: Safetyscreen44 off target panel (Homo sapiens, UniProt P43681)
Safetyscreen44 off target panel (Homo sapiens, UniProt P43681), sequence (P43681 27-627): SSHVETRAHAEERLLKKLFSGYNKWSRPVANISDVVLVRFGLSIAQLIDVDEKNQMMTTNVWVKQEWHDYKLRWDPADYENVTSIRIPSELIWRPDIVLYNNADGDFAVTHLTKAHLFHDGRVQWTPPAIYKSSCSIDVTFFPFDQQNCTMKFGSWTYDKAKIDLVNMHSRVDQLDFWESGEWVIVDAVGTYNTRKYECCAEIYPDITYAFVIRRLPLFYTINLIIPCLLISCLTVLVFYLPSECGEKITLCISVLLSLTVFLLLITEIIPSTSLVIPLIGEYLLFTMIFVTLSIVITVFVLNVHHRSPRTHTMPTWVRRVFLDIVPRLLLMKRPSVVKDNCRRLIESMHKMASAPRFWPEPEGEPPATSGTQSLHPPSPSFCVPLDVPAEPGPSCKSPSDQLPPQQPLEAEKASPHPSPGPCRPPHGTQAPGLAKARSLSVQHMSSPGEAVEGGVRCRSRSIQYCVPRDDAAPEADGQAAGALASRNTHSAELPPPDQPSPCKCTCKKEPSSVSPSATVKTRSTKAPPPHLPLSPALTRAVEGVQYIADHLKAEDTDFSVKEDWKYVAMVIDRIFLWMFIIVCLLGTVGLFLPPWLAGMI

[5] = target: Safetyscreen44 off target panel (Homo sapiens, UniProt P08908)
Safetyscreen44 off target panel (Homo sapiens, UniProt P08908), sequence (P08908 whole entry): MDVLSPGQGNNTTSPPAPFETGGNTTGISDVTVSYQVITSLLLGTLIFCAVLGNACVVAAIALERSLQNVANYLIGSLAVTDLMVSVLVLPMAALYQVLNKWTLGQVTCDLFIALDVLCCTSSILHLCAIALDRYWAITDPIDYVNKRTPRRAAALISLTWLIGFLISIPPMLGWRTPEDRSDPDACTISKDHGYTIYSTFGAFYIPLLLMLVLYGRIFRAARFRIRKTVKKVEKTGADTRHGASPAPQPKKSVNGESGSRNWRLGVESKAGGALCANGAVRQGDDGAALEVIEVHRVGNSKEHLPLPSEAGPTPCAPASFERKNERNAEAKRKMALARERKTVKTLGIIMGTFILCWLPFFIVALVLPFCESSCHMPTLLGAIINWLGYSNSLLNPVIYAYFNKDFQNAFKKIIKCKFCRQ

[6] = target: Safetyscreen44 off target panel (Homo sapiens, UniProt P35367)
[7] = target: Safetyscreen44 off target panel (Homo sapiens, UniProt P08588)
[8] = target: Safetyscreen44 off target panel (Homo sapiens, UniProt P41143)
Safetyscreen44 off target panel (Homo sapiens, UniProt P41143), sequence (P41143 whole entry): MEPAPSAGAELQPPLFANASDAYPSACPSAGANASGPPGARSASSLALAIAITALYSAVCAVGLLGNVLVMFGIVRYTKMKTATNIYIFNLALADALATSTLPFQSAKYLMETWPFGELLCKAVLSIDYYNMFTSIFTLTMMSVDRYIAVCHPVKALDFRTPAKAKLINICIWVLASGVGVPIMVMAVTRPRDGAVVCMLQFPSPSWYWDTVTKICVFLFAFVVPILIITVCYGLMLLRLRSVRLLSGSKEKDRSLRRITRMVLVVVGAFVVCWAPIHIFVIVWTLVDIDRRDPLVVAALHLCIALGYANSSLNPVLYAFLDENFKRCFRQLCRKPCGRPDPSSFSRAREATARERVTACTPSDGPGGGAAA

[9] = target: Safetyscreen44 off target panel (Homo sapiens, UniProt P25101)
Safetyscreen44 off target panel (Homo sapiens, UniProt P25101), sequence (P25101 21-427): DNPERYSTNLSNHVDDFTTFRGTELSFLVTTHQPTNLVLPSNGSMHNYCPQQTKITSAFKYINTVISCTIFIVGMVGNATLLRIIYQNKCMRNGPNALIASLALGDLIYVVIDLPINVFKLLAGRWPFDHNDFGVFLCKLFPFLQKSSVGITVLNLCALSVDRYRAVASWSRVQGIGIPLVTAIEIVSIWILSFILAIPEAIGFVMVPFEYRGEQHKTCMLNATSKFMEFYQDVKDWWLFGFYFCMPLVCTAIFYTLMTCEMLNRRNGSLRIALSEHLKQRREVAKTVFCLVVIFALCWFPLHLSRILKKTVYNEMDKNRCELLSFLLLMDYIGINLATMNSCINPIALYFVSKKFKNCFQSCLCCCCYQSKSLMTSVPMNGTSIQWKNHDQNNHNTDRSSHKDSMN

[10] = target: Safetyscreen44 off target panel (Homo sapiens, UniProt P31645)
Safetyscreen44 off target panel (Homo sapiens, UniProt P31645), sequence (P31645 whole entry): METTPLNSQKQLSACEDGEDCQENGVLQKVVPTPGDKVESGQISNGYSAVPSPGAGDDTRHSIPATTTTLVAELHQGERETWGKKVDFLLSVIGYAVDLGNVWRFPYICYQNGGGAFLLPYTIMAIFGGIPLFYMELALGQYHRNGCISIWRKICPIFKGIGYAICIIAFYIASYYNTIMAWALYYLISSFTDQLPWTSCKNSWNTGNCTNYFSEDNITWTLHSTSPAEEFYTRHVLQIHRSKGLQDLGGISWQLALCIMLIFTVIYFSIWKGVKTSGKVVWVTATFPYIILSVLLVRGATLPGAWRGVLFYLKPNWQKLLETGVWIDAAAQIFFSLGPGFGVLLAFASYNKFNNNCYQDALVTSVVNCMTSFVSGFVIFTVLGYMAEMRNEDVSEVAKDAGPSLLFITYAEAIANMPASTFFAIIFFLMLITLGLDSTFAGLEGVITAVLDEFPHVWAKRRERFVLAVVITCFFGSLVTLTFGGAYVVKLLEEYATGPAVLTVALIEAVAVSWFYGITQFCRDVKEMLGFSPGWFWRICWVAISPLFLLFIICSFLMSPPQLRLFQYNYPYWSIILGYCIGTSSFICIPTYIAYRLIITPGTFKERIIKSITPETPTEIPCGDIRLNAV

[11] = target: Safetyscreen44 off target panel (Homo sapiens, UniProt Q14432)
[12] = target: Safetyscreen44 off target panel (Homo sapiens, UniProt P08172)
Safetyscreen44 off target panel (Homo sapiens, UniProt P08172), sequence (P08172 whole entry): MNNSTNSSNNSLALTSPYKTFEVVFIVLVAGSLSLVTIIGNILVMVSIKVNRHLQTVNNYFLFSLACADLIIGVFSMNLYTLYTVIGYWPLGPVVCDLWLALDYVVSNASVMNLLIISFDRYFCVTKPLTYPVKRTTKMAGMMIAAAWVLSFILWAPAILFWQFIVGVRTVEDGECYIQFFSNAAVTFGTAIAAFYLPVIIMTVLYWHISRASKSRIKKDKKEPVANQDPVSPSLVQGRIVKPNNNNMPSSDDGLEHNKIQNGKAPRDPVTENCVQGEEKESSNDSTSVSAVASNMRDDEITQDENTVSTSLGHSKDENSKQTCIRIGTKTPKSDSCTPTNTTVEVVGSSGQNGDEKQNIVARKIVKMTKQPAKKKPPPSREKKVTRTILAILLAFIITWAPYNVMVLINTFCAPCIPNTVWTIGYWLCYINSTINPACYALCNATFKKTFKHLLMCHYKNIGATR

[13] = target: Safetyscreen44 off target panel (Homo sapiens, UniProt P25021)
Safetyscreen44 off target panel (Homo sapiens, UniProt P25021), sequence (P25021 whole entry): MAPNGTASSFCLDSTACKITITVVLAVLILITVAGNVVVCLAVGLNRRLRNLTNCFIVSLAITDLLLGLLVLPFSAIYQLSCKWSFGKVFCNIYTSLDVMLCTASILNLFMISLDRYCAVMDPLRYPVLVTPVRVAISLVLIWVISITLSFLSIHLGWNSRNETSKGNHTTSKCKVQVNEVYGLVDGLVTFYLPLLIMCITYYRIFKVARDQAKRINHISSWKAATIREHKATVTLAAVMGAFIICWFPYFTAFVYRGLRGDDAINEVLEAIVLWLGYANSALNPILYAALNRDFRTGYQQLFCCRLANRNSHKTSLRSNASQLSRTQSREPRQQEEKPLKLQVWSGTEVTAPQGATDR

[14] = Single dose pharmacokinetics study, intravenous route; details: 5 mg/kg
[15] = Male CD1 mouse, blood, Composite Mean
[16] = male, CD-1 (ICR), mouse, in vivo

Safetyscreen44 off target panel (Homo sapiens, UniProt P23219), sequence (P23219 24-599): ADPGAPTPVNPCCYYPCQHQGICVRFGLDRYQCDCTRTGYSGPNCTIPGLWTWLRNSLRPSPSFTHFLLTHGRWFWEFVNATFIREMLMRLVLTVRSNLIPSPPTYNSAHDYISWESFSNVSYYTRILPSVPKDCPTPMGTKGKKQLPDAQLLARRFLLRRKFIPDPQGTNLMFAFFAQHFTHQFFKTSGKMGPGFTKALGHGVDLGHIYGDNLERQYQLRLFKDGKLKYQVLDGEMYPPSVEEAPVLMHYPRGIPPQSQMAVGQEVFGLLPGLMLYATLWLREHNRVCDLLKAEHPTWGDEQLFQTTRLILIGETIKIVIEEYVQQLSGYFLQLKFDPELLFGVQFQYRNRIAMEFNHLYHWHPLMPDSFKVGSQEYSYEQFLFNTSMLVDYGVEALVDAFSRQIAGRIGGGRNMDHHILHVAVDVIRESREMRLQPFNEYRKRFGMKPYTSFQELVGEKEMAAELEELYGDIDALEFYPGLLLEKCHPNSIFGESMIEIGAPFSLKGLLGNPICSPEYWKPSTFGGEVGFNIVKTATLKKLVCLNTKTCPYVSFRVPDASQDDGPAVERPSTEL
Safetyscreen44 off target panel (Homo sapiens, UniProt P34972), sequence (P34972 whole entry): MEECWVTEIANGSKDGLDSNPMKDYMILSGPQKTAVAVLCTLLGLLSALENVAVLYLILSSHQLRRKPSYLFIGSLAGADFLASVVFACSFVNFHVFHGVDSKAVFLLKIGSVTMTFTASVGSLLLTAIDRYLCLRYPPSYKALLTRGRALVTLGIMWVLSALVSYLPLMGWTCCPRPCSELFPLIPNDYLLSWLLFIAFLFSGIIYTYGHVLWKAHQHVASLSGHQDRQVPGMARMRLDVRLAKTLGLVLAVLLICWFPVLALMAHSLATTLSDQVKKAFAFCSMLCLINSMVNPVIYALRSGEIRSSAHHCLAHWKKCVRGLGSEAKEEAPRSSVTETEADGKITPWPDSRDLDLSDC

## C[C@H]1COc2c(N3CC[C@@H](Nc4ncccn4)C3)c(F)cc3c(=O)c(C(=O)O)cn1c23 [KSN-82-L22]
[1]
  % inhibition, CB2 (h) (agonist radioligand): 0%
[2]
  % inhibition, COX1 (h): 30.3185%
[3]
  % inhibition, GR (h) (agonist radioligand): 3.456%
[4]
  % inhibition, N neuronal alpha 4beta 2 (h) (agonist radioligand): −41.8108%
[5]
  % inhibition, 5-HT1A(h) (agonist radioligand): −3.77%
[6]
  % inhibition, H1 (h) (antagonist radioligand): 5.564%
[7]
  % inhibition, beta 1 (h) (agonist radioligand): 1.921%
[8]
  % inhibition, delta (DOP) (h) (agonist radioligand): 2.159%
[9]
  % inhibition, ETA (h) (agonist radioligand): −5.236%
[10]
  % inhibition, 5-HT transporter (h) (antagonist radioligand): −16.9663%
[11]
  % inhibition, PDE3A (h): 7.502%
[12]
  % inhibition, M2 (h) (antagonist radioligand): 1.066%
[13]
  % inhibition, H2 (h) (antagonist radioligand): −40.1709%
[14]; [15]
  Blood CL: 12.5 mL/min/kg
  Clast: 286 ng/mL
[14]; [16]
  AUC: 6420 ng·h/mL and 15.1 µM·h
  AUC(0-inf): 15.7 µM·h
  Cmax: 9390 ng/mL and 22.1 µM
  MRT: 1.8 h
  half-life: 36 min
